molecular target: T1, B1R receptor of the rat (CHO K1 cells stably transfected with the B1R gene of the rat) (Rattus norvegicus, UniProt P97583); experiment: Functional study on the bradykinin receptor 1 (B1R), Ca2+ fluorescence (Fluo-4) FLIPR/Novostar assay, rB1R cells; type: cell-based; conditions: CHO-K1, 10 μM, library compounds CC_H, read-out: % Inhibition (r-B1R) at 10 μM
T1 construct: expressed in transfected cells; host or cells: CHO K1 cells (Chinese hamster ovary), stably transfected
T1 sequence (P97583 1-337): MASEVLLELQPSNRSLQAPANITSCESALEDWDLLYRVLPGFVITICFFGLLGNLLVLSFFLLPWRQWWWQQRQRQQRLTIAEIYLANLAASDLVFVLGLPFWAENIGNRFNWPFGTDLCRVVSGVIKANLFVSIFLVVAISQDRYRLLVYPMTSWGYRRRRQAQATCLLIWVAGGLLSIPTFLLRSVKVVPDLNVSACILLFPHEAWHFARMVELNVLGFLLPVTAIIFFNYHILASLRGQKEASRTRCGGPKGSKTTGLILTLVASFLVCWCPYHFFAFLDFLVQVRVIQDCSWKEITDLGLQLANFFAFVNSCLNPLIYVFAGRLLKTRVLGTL
Summary of the method: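 Ca2+ influx (Fluo-4, peak fluorescence, λex 488/λem 540 nm) was measured in CHO K1 lines expressing rat or human B1R. After a 10 μM test-compound pre-addition scoring % activation, cells received EC80 agonist: Des-Arg9-bradykinin for rat, Lys-Des-Arg9-bradykinin for human. Antagonism was expressed as % of maximum inhibition, with IC50 from varied concentrations.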

inhibition at 10 µM	SMILES
91%	CN(C(=O)c1ccc2c(c1)C(NC(=O)c1cccnc1C(F)(F)F)CC2)C1CCN(c2ccnc(S(C)(=O)=O)n2)CC1 (centres unmarked) [CC_H-600, N-[6-[Methyl-[1-(2-methylsulfonyl-pyrimidin-4-yl)-piperidin-4-yl]-carbamoyl]-2,3-dihydro-1H-inden-1-yl]-2-(trifluoromethyl)-pyridine-3-carboxylic acid amide]
74%	CN(C)C(=O)c1cc(N2CCC(N(C)C(=O)c3ccc4c(c3)C(NC(=O)c3cccnc3C(F)(F)F)CC4)CC2)ccn1 (centres unmarked) [CC_H-601, N-[6-[[1-[2-(Dimethyl-carbamoyl)-pyridin-4-yl]-piperidin-4-yl]-methyl-carbamoyl]-2,3-dihydro-1H-inden-1-yl]-2-(trifluoromethyl)-pyridine-3-carboxylic acid amide]
102%	CN(C(=O)c1ccc2c(c1)C(NC(=O)c1cccnc1C(F)(F)F)CC2)C1CCN(c2ccnc(N3CCCC3)n2)CC1 (centres unmarked) [CC_H-603, N-[6-[Methyl-[1-(2-pyrrolidin-1-yl-pyrimidin-4-yl)-piperidin-4-yl]-carbamoyl]-2,3-dihydro-1H-inden-1-yl]-2-(trifluoromethyl)-pyridine-3-carboxylic acid amide]

same assay, conditions: CHO-K1, 10 μM, read-out: % Inhibition (r-B1R) at 10 μM

SMILES	inhibition at 10 µM
Cc1cc(N2CCC(N(C)C(=O)c3ccc4c(c3)C(N(C)C(=O)CC(C)C)CC4)CC2)cc(C)n1 (centres unmarked) [CC_H-352, N-[1-(2,6-Dimethyl-pyridin-4-yl)-piperidin-4-yl]-N-methyl-3-[methyl-(3-methyl-butanoyl)-amino]-2,3-dihydro-1H-indene-5-carboxylic acid amide]	110%
CCCC(=O)N(C)C1CCc2ccc(C(=O)N(C)C3CCN(c4cc(C)nc(C)c4)CC3)cc21 (centres unmarked) [CC_H-353, 3-(Butanoyl-methyl-amino)-N-[1-(2,6-dimethyl-pyridin-4-yl)-piperidin-4-yl]-N-methyl-2,3-dihydro-1H-indene-5-carboxylic acid amide]	84%
Cc1cc(N2CCC(N(C)C(=O)c3ccc4c(c3)C(N(C)C(=O)CCC3CCCC3)CC4)CC2)cc(C)n1 (centres unmarked) [CC_H-354, 3-(3-Cyclopentyl-propanoyl-methyl-amino)-N-[1-(2,6-dimethyl-pyridin-4-yl)-piperidin-4-yl]-N-methyl-2,3-dihydro-1H-indene-5-carboxylic acid amide]	110%
Cc1cc(N2CCC(N(C)C(=O)c3ccc4c(c3)C(N(C)S(=O)(=O)Cc3cccc(C(F)(F)F)c3)CC4)CC2)cc(C)n1 (centres unmarked) [CC_H-355, N-[1-(2,6-Dimethyl-pyridin-4-yl)-piperidin-4-yl]-N-methyl-3-[methyl-[[3-(trifluoromethyl)phenyl]-methylsulfonyl]-amino]-2,3-dihydro-1H-indene-5-carboxylic acid amide]	96%
CN(C(=O)c1ccc2c(c1)C(NC(=O)c1cc(F)ccc1Cl)CC2)C1CCN(c2ccc3cnccc3c2)CC1 (centres unmarked) [CC_H-356, 3-[(2-Chloro-5-fluoro-benzoyl)amino]-N-(1-isoquinolin-6-yl-piperidin-4-yl)-N-methyl-2,3-dihydro-1H-indene-5-carboxylic acid amide]	109%
CN(C(=O)c1ccc2c(c1)C(NC(=O)c1cc(C(F)(F)F)ccc1Cl)CC2)C1CCN(c2ccc3cnccc3c2)CC1 (centres unmarked) [CC_H-357, 3-[[2-Chloro-5-(trifluoromethyl)-benzoyl]amino]-N-(1-isoquinolin-6-yl-piperidin-4-yl)-N-methyl-2,3-dihydro-1H-indene-5-carboxylic acid amide]	110%
Cc1ccc(F)c(C(=O)NC2CCc3ccc(C(=O)N(C)C4CCN(c5ccc6cnccc6c5)CC4)cc32)c1Cl (centres unmarked) [CC_H-358, 3-[(2-Chloro-6-fluoro-3-methyl-benzoyl)amino]-N-(1-isoquinolin-6-yl-piperidin-4-yl)-N-methyl-2,3-dihydro-1H-indene-5-carboxylic acid amide]	111%
CN(C(=O)c1ccc2c(c1)C(NC(=O)c1cc(Cl)ccc1Cl)CC2)C1CCN(c2ccc3cnccc3c2)CC1 (centres unmarked) [CC_H-359, 3-[(2,5-Dichloro-benzoyl)amino]-N-(1-isoquinolin-6-yl-piperidin-4-yl)-N-methyl-2,3-dihydro-1H-indene-5-carboxylic acid amide]	110%
CN(C(=O)c1ccc2c(c1)C(NC(=O)C1CCCCC1)CC2)C1CCN(c2ccc3cnccc3c2)CC1 (centres unmarked) [CC_H-360, 3-(Cyclohexanecarbonylamino)-N-(1-isoquinolin-6-yl-piperidin-4-yl)-N-methyl-2,3-dihydro-1H-indene-5-carboxylic acid amide]	109%
CN(C(=O)c1ccc2c(c1)C(NC(=O)C1CC1)CC2)C1CCN(c2ccc3cnccc3c2)CC1 (centres unmarked) [CC_H-361, 3-(Cyclopropanecarbonylamino)-N-(1-isoquinolin-6-yl-piperidin-4-yl)-N-methyl-2,3-dihydro-1H-indene-5-carboxylic acid amide]	110%
CN(C(=O)c1ccc2c(c1)C(NC(=O)CC(C)(C)C)CC2)C1CCN(c2ccc3cnccc3c2)CC1 (centres unmarked) [CC_H-362, 3-(3,3-Dimethyl-butanoylamino)-N-(1-isoquinolin-6-yl-piperidin-4-yl)-N-methyl-2,3-dihydro-1H-indene-5-carboxylic acid amide]	110%
COCC(=O)NC1CCc2ccc(C(=O)N(C)C3CCN(c4ccc5cnccc5c4)CC3)cc21 (centres unmarked) [CC_H-363, N-(1-Isoquinolin-6-yl-piperidin-4-yl)-3-[(2-methoxy-acetyl)amino]-N-methyl-2,3-dihydro-1H-indene-5-carboxylic acid amide]	89%
CN(C(=O)c1ccc2c(c1)C(NC(=O)c1cccc(C(F)(F)F)c1Cl)CC2)C1CCN(c2ccc3cnccc3c2)CC1 (centres unmarked) [CC_H-364, 3-[[2-Chloro-3-(trifluoromethyl)-benzoyl]amino]-N-(1-isoquinolin-6-yl-piperidin-4-yl)-N-methyl-2,3-dihydro-1H-indene-5-carboxylic acid amide]	111%
CN(C(=O)c1ccc2c(c1)C(NC(=O)Nc1ccccc1Cl)CC2)C1CCN(c2ccc3cnccc3c2)CC1 (centres unmarked) [CC_H-365, 3-[[(2-Chlorophenyl)-carbamoyl]amino]-N-(1-isoquinolin-6-yl-piperidin-4-yl)-N-methyl-2,3-dihydro-1H-indene-5-carboxylic acid amide]	64%

Results, then the compound that gave them:

inhibition at 10 µM	SMILES
92%	CN(C(=O)c1ccc2c(c1)C(NC(=O)Nc1c(Cl)cccc1Cl)CC2)C1CCN(c2ccc3cnccc3c2)CC1 (centres unmarked) [CC_H-366, 3-[[(2,6-Dichloro-phenyl)-carbamoyl]amino]-N-(1-isoquinolin-6-yl-piperidin-4-yl)-N-methyl-2,3-dihydro-1H-indene-5-carboxylic acid amide]
91%	CN(C(=O)NC1CCc2ccc(C(=O)N(C)C3CCN(c4ccc5cnccc5c4)CC3)cc21)c1ccccc1Cl (centres unmarked) [CC_H-375, 3-[[(2-Chlorophenyl)-methyl-carbamoyl]amino]-N-(1-isoquinolin-6-yl-piperidin-4-yl)-N-methyl-2,3-dihydro-1H-indene-5-carboxylic acid amide]
77%	CN(C(=O)NC1CCc2ccc(C(=O)N(C)C3CCN(c4ccc5cnccc5c4)CC3)cc21)c1ccc(Cl)cc1Cl (centres unmarked) [CC_H-376, 3-[[(2,4-Dichlorophenyl)-methyl-carbamoyl]amino]-N-(1-isoquinolin-6-yl-piperidin-4-yl)-N-methyl-2,3-dihydro-1H-indene-5-carboxylic acid amide]
101%	CCCS(=O)(=O)NC1CCc2ccc(C(=O)N(C)C3CCN(c4ccc5cnccc5c4)CC3)cc21 (centres unmarked) [CC_H-378, N-(1-Isoquinolin-6-yl-piperidin-4-yl)-N-methyl-3-[(propylsulfonyl)amino]-2,3-dihydro-1H-indene-5-carboxylic acid amide]
110%	CC(C)CC(=O)NC1CCc2ccc(C(=O)N(C)C3CCN(c4ccc5cnccc5c4)CC3)cc21 (centres unmarked) [CC_H-379, N-(1-Isoquinolin-6-yl-piperidin-4-yl)-N-methyl-3-(3-methyl-butanoylamino)-2,3-dihydro-1H-indene-5-carboxylic acid amide]
103%	CCCC(=O)NC1CCc2ccc(C(=O)N(C)C3CCN(c4ccc5cnccc5c4)CC3)cc21 (centres unmarked) [CC_H-380, 3-(Butanoylamino)-N-(1-isoquinolin-6-yl-piperidin-4-yl)-N-methyl-2,3-dihydro-1H-indene-5-carboxylic acid amide]
109%	CN(C(=O)c1ccc2c(c1)C(NC(=O)CCC1CCCC1)CC2)C1CCN(c2ccc3cnccc3c2)CC1 (centres unmarked) [CC_H-381, 3-(3-Cyclopentyl-propanoylamino)-N-(1-isoquinolin-6-yl-piperidin-4-yl)-N-methyl-2,3-dihydro-1H-indene-5-carboxylic acid amide]
50%	CN(C(=O)c1ccc2c(c1)C(NS(=O)(=O)Cc1cccc(C(F)(F)F)c1)CC2)C1CCN(c2ccc3cnccc3c2)CC1 (centres unmarked) [CC_H-383, N-(1-Isoquinolin-6-yl-piperidin-4-yl)-N-methyl-3-[[[3-(trifluoromethyl)phenyl]-methylsulfonyl]amino]-2,3-dihydro-1H-indene-5-carboxylic acid amide]
109%	CN(C(=O)c1ccc2c(c1)C(NS(=O)(=O)Cc1ccccc1F)CC2)C1CCN(c2ccc3cnccc3c2)CC1 (centres unmarked) [CC_H-384, 3-[[(2-Fluorophenyl)-methylsulfonyl]amino]-N-(1-isoquinolin-6-yl-piperidin-4-yl)-N-methyl-2,3-dihydro-1H-indene-5-carboxylic acid amide]
